In patent US9884891B2, “KISS1R receptor agonist compounds and use thereof for inducing ovulation in mammals” (INSTITUT NATIONAL DE LA RECHERCHE AGRONOMIQUE, priority 2013, dated 2018):
Where two headings read alike, the source gives them in different places. Values belong to the compound of their own block, whether it stands above or below them. *1 amine or outer side, *2 acyl side, *3 side chain or, on linkers, in order; H or OH if unused. Where a SMILES comes first, the peptide text is derived from it. [ ]: non-standard residue; d: D form. The star is where a group is joined. PEG 5000 = polyethylene glycol (5000) attached to the Lys side chain; Glyψ(1,4-Tz)Leu = CC(C)C[C@@H](C(=O)[*:2])n1cc(CN[*:1])nn1; γGlu = O=C(O)[C@H](CCC(=O)[*:2])N[*:1]; Arg(Me) = CNC(=N)NCCC[C@H](N)C(=O)O; Palmitoyl = CCCCCCCCCCCCCCCC(=O)*

Tests used:
[1] = Test for proteolytic degradation of the peptide compounds in ovine serum; assay type: in vitro ADME, ewes of the Ile de France breed; conditions: female, Ile de France, sheep
Protocol: In order to carry out this test, blood was collected from the jugular vein of ewes of the Ile de France breed, and centrifuged. The supernatant (serum) was stored at −20° C. until use.
The degradation in this serum of the various peptide compounds in accordance with the invention and of the comparative peptide compounds is monitored over time. To this effect, each peptide compound to be analyzed and the internal calibrant (L-phenylalaninol) are dissolved in milliQ water (0.5 mM and 6.6 mM, respectively). The commercial protease inhibitor cocktail (Sigma, ref. P8340) is supplied in solution in DMSO.
The serum and the stock solutions of peptide compounds are preheated at 39° C. for 30 minutes. Each solution of peptide compound (50 μl, i.e. a final concentration in the serum of 50 μM) and the solution of internal calibrant (25 μl) are mixed with 425 μl of serum and incubated at 39° C. The proteolytic degradation kinetics of the compounds are monitored by taking a sample, at various given times, of 75 μl of the solution, which are diluted with 150 μL of acetonitrile in order to precipitate the serum proteins. The suspension obtained is centrifuged at 14 000 revolutions/min for 10 min at 4° C.
The amount of peptide compound intact after incubation is determined by integration of the area of the peak, using L-phenylalaninol as internal calibrant. It is expressed as % of the area of the peak at time t=0.
The value corresponding to 100% of intact peptide compound is obtained by mixing 420 μl of serum, 5 μl of the inhibitor cocktail and 25 μl of the phenylalaninol solution, followed by 50 μl of peptide compound, and then by immediately treating the resulting solution according to the protocol described above.

[2] = biological target: T1, human KISS1R receptor (Homo sapiens, UniProt Q969F8); assay: Intracellular calcium mobilization test in HEK293A cells expressing human KISS1R; assay type: cell-based; conditions: for EC50: HEK293A cells expressing human KISS1R, Fluo-4NW; for human KISS1R-stimulating power (in words): calcium mobilization, compared with Comp.1
T1 construct: expressed in transfected cells
T1 sequence (Q969F8 whole entry): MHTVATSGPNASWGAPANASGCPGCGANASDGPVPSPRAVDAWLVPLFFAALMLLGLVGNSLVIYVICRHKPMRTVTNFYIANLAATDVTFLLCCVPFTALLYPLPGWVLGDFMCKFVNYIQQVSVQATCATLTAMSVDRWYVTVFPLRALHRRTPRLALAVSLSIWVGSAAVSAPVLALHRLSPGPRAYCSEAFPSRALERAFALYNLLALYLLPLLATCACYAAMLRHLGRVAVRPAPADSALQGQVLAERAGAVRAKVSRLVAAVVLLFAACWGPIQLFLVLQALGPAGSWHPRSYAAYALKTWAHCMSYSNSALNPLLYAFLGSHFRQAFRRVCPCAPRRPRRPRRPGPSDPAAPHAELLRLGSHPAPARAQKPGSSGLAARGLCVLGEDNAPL
Description: In order to carry out the in vitro tests for the activity of the peptide compounds in accordance with the invention and the comparative compounds, the HEK293A cell line (ATCC, American Type Culture Collection, Manassas, Va., USA) was stably transfected with the human KISS1R receptor (Genbank accession number: NM_032551). The pcDNA3.1 vector (Invitrogen, Cergy Pontoise, France), into which the sequence of human KISS1R has been inserted with a 5′ HA tag at position 957-2150 bp, was used for the transfection. The transfection and the selection of the clones were carried out as described in the literature (Mancini et al. 2009, and Invitrogen website).
In order to verify the agonist activity and to measure the EC50 of the peptide compounds according to the invention, the following protocol was carried out.
HEK293A cells expressing the human KISS1R receptor were seeded into a 96-well plate (μClear® black plate) at the concentration of 40 000 cells/well, and placed in an incubator at 37° C. After 48 hours, the medium was changed and the cells were incubated with the fluorescent dye Fluo-4NW, according to the instructions of the manufacturer (Molecular Probe).
After having measured the basal fluorescence, 5 μl of the 20× solution containing the test compound were added to each well (containing 95 μl) so as to obtain the desired concentration. The variations in fluorescence were recorded every 7 seconds for 5-7 minutes with a plate reader (PolarStar Optima, BMG Labtech). Activity-concentration curves were generated using the GraphPad Prism 5 software, and the EC50 of each compound was calculated by adjusting the curve to a sigmoid.

[3] = ovine serum, 39° C., 50 μM, 3 h, % of the area of the HPLC peak at time t = 0, read-out: % of peptide intact after 3 h of incubation in the serum
[4] = read-out: EC50, intracellular calcium mobilization of cells expressing human KISS1R (Table 2)
[5] = compounds with serum albumin binding unit or PEG, read-out: EC50, intracellular calcium mobilization of cells expressing human KISS1R (Table 3)

Compound: CC(C)C[C@H](NC(=O)CNC(=O)[C@H](Cc1ccccc1)NC(=O)[C@H](CO)NC(=O)[C@H](CC(N)=O)NC(=O)[C@H](Cc1c[nH]c2ccccc12)NC(=O)[C@H](CC(N)=O)NC(=O)[C@@H](N)Cc1ccc(O)cc1)C(=O)N[C@@H](CCCNC(=N)N)C(=O)N[C@@H](Cc1ccccc1)C(N)=O [Comp. 2, reference compound]
remaining at 3 h, 50 μM [1, 3]: < 0.1%

remaining at 3 h, 50 μM ([1]; serum): 55%
EC50 [2, 4]: 0.014 nM
Compound: CNC(=N)NCCC[C@H](NC(=O)[C@H](CC(C)C)n1cc(CNC(=O)[C@H](Cc2ccccc2)NC(=O)[C@H](CO)NC(=O)[C@H](CC(N)=O)NC(=O)[C@H](Cc2c[nH]c3ccccc23)NC(=O)[C@H](CC(N)=O)NC(=O)[C@H](Cc2ccc(O)cc2)NC(C)=O)nn1)C(=O)N[C@@H](Cc1ccc(O)cc1)C(N)=O [Compound C3, Ac-Tyr-Asn-Trp-Asn-Ser-Phe-GlyΨ[Tz]Leu-Arg(Me)-Tyr-NH2] (HELM PEPTIDE1{[ac].Y.N.W.N.S.F.[CC(C)C[C@@H](C(=O)[*:2])n1cc(CN[*:1])nn1].[CNC(=N)NCCC[C@H](N[*:1])C(=O)[*:2]].Y.[am]}$$$$V2.0)

remaining at 3 h, 50 μM ([1]; serum): 51%
Compound: CC(=O)N[C@@H](Cc1ccc(O)cc1)C(=O)N[C@@H](CC(N)=O)C(=O)N[C@@H](Cc1c[nH]c2ccccc12)C(=O)N[C@@H](CC(N)=O)C(=O)N[C@@H](CO)C(=O)N[C@@H](Cc1ccccc1)c1cn(Cc2cn([C@@H](CC(C)C)C(=O)N[C@@H](CCCNC(=N)N)C(=O)N[C@@H](Cc3ccc(O)cc3)C(N)=O)nn2)nn1 [Compound C5, Ac-Tyr-Asn-Trp-Asn-Ser-PheΨ[Tz]GlyΨ[Tz]Leu-Arg-Tyr-NH2]
human KISS1R-stimulating power (in words) [2]: remains, however, active, although to a lesser degree

remaining at 3 h, 50 μM ([1]; serum): 17%
EC50 [2, 4]: 0.014 nM
Compound: CNC(=N)NCCC[C@H](NC(=O)[C@H](CC(C)C)n1cc(CNC(=O)[C@H](Cc2ccccc2)NC(=O)[C@@H](NC(=O)[C@H](CC(N)=O)NC(=O)[C@@H]2C[C@@H](O)CN2C(=O)[C@@H](Cc2ccc(O)cc2)NC(C)=O)[C@@H](C)O)nn1)C(=O)N[C@@H](Cc1c[nH]c2ccccc12)C(N)=O [Compound C7, Ac-DTyr-Hyp-Asn-Thr-Phe-GlyΨ[Tz]Leu-Arg(Me)-Trp-NH2] (HELM PEPTIDE1{[ac].[dY].[Hyp].N.T.F.[CC(C)C[C@@H](C(=O)[*:2])n1cc(CN[*:1])nn1].[CNC(=N)NCCC[C@H](N[*:1])C(=O)[*:2]].W.[am]}$$$$V2.0)

EC50 [2, 5]: < 0.001 nM
Compound: CCCCCCCCCCCCCCCC(=O)N[C@@H](CCC(=O)N[C@@H](Cc1ccc(O)cc1)C(=O)N[C@@H](CC(N)=O)C(=O)N[C@@H](Cc1c[nH]c2ccccc12)C(=O)N[C@@H](CC(N)=O)C(=O)N[C@@H](CO)C(=O)N[C@@H](Cc1ccccc1)C(=O)NCc1cn([C@@H](CC(C)C)C(=O)N[C@@H](CCCNC(=N)N)C(=O)N[C@@H](Cc2ccc(O)cc2)C(N)=O)nn1)C(=O)O [Compound C9, γ-(N-hexadecanoyl-Glu-OH)-Tyr-Asn-Trp-Asn-Ser-Phe-GlyΨ[Tz]Leu-Arg-Tyr-NH2] (HELM PEPTIDE1{[CCCCCCCCCCCCCCCC(=O)[*:2]].[gGlu].Y.N.W.N.S.F.[CC(C)C[C@@H](C(=O)[*:2])n1cc(CN[*:1])nn1].R.Y.[am]}$$$$V2.0)

EC50 [2, 5]: < 0.001 nM
Compound: CCCCCCCCCCCCCCCC(=O)N[C@@H](CCC(=O)N[C@@H](Cc1ccc(O)cc1)C(=O)N[C@@H](CC(N)=O)C(=O)N[C@@H](Cc1c[nH]c2ccccc12)C(=O)N[C@@H](CC(N)=O)C(=O)N[C@@H](CO)C(=O)N[C@@H](Cc1ccccc1)C(=O)NCc1cn([C@@H](CC(C)C)C(=O)N[C@@H](CCCNC(=N)N)C(=O)N[C@@H](Cc2c[nH]c3ccccc23)C(N)=O)nn1)C(=O)O [Compound C10, γ-(N-hexadecanoyl-Glu-OH)Tyr-Asn-Trp-Asn-Ser-Phe-GlyΨ[Tz]Leu-Arg-Trp-NH2] (HELM PEPTIDE1{[CCCCCCCCCCCCCCCC(=O)[*:2]].[gGlu].Y.N.W.N.S.F.[CC(C)C[C@@H](C(=O)[*:2])n1cc(CN[*:1])nn1].R.W.[am]}$$$$V2.0)

Compound: CCCCCCCCCCCCCCCC(=O)N[C@@H](CCC(=O)NCCCC[C@H](NC(=O)[C@H](CC(N)=O)NC(=O)[C@H](Cc1ccc(O)cc1)NC(C)=O)C(=O)N[C@@H](CC(N)=O)C(=O)N[C@@H](CO)C(=O)N[C@@H](Cc1ccccc1)C(=O)NCc1cn([C@@H](CC(C)C)C(=O)N[C@@H](CCCNC(=N)N)C(=O)N[C@@H](Cc2ccc(O)cc2)C(N)=O)nn1)C(=O)O [Compound C11, Ac-Tyr-Asn-Lys(γ-(N-hexadecanoyl-Glu-OH))-Asn-Ser-Phe-GlyΨ[Tz]Leu-Arg-Tyr-NH2] (HELM PEPTIDE1{[ac].Y.N.K.N.S.F.[CC(C)C[C@@H](C(=O)[*:2])n1cc(CN[*:1])nn1].R.Y.[am]}|PEPTIDE2{[CCCCCCCCCCCCCCCC(=O)[*:2]].[gGlu]}$PEPTIDE1,PEPTIDE2,4:R3-2:R2$$$V2.0)
human KISS1R-stimulating power (in words) [2]: remains, however, active, although to a lesser degree

EC50 [2, 5]: < 0.001 nM
Compound: CCCCCCCCCCCCCCCC(=O)N[C@@H](CCC(=O)N[C@@H](Cc1ccc(O)cc1)C(=O)N[C@@H](CC(N)=O)C(=O)N[C@@H](Cc1c[nH]c2ccccc12)C(=O)N[C@@H](CC(N)=O)C(=O)N[C@@H](CO)C(=O)N[C@@H](Cc1ccccc1)C(=O)NCc1cn([C@@H](CC(C)C)C(=O)N[C@@H](CCCNC(=N)NC)C(=O)N[C@@H](Cc2ccc(O)cc2)C(N)=O)nn1)C(=O)O [Compound C12, γ-(N-hexadecanoyl-Glu-OH)Tyr-Asn-Trp-Asn-Ser-Phe-GlyΨ[Tz]Leu-Arg(Me)-Tyr-NH2] ({Palmitoyl-γGlu}-YNWNSF[Glyψ(1,4-Tz)Leu][Arg(Me)]Y-NH2)

EC50 [2, 5]: 0.01 nM
Compound: CCCCCCCCCCCCCCCC(=O)N[C@@H](CCC(=O)N[C@@H](Cc1ccc(O)cc1)C(=O)N[C@@H](CC(N)=O)C(=O)N[C@@H](Cc1c[nH]c2ccccc12)C(=O)N[C@@H](CC(N)=O)C(=O)N[C@@H](CO)C(=O)N[C@@H](Cc1ccccc1)C(=O)NCc1cn([C@@H](CC(C)C)C(=O)N[C@@H](CCCNC(=N)N)C(=O)N[C@@H](Cc2ccccc2)C(N)=O)nn1)C(=O)O [Compound C13, γ-(N-hexadecanoyl-Glu-OH)Tyr-Asn-Trp-Asn-Ser-Phe-GlyΨ[Tz]Leu-Arg-Phe-NH2] (HELM PEPTIDE1{[CCCCCCCCCCCCCCCC(=O)[*:2]].[gGlu].Y.N.W.N.S.F.[CC(C)C[C@@H](C(=O)[*:2])n1cc(CN[*:1])nn1].R.F.[am]}$$$$V2.0)

Compound: Ac-Tyr-Lys(PEG5000)-Trp-Asn-Ser-Phe-GlyΨ[Tz]Leu-Arg-Tyr-NH2 (Ac-YK(PEG 5000)WNSFGLRY-NH2; also: Gly7-Leu8 peptide bond replaced by 1,4-disubstituted 1,2,3-triazole) [Compound C16, PEG5000 = COCH2CH2NH(CH2CH2O)nMe, average molecular weight approximately 5000 g/mol]
human KISS1R-stimulating power (in words) [2]: shows a power similar to the comparative compound Comp.1

Compound: H-YNWNSFGLRY-NH2 [Comp. 1, reference compound]
remaining at 3 h, 50 μM [1, 3]: < 0.1%
